pEC50: −log10 of the molar value. Like-named read-outs stand apart in the source and are kept apart here.
Target: CFTR (Homo sapiens, UniProt P13569)
Assay: Membrane potential dye, Enteroid Assay B
Assay type: cell-based
Settings: for Ent. B Max Activity: chloride transport as % of triple combination control (Enteroid Assay B); for pEC50: read-out: Ent. B EC50
Protocol: Base medium (ADF+++) consisted of Advanced DMEM/Ham's F12, 2 mM Glutamax, 10 mM HEPES, […] penicillin/streptomycin.
Intestinal enteroid maintenance medium (IEMM) consisted of ADF+++, 1× B27 supplement, 1× N2 supplement, 1.25 mM N-acetyl cysteine, 10 mM Nicotinamide, 50 ng/mL hEGF, 10 nM Gastrin, 1 μg/mL hR-spondin-1, 100 ng/mL hNoggin, TGF-b type 1 inhibitor A-83-01, 100 μg/mL Primocin, 10 μM P38 MAPK inhibitor SB202190.
Bath 1 Buffer consisted of 1 mM MgCl2, 160 mM NaCl, 4.5 mM KCl, 10 mM HEPES, 10 mM Glucose, 2 mM CaCl2).
Chloride Free Buffer consisted of 1 mM Magnesium Gluconate, 2 mM Calcium Gluconate, 4.5 mM Potassium Gluconate, 160 mM Sodium Gluconate, 10 mM HEPES, 10 mM Glucose.
BathI Dye Solution consisted of Bath 1 Buffer, 0.04% Pluronic F127, 20 μM Methyl Oxonol, 30 μM CaCCinh-A01, 30 μM Chicago Sky Blue.
Chloride Free Dye Solution consisted of Chloride Free Buffer, 0.04% Pluronic F127, 20 μM Methyl Oxonol, 30 μM CaCCinh-A01, 30 μM Chicago Sky Blue.
Chloride Free Dye Stimulation Solution consisted of Chloride Free Dye Solution, 10 μM forskolin, 100 μM IBMX, and 300 nM Compound III.
Human intestinal epithelial enteroid cells were obtained from the Hubrecht Institute for Developmental Biology and Stem Cell Research, Utrecht, The Netherlands and expanded in T-Flasks as previously described (Dekkers J F, Wiegerinck C L, de Jonge H R, Bronsveld I, Janssens H M, de Winter-de Groot K M, Brandsma A M, de Jong N W M, Bijvelds M J C, Scholte B J, Nieuwenhuis E E S, van den Brink S, Clevers H, van der Ent C K, Middendorp S and M Beekman J M. A functional CFTR assay using primary cystic fibrosis intestinal organoids. Nat Med. 2013 July;19(7):939-45.).
3. Enteroid Cell Harvesting and Seeding
Cells were recovered in cell recovery solution, collected by centrifugation at 650 rpm for 5 min at 4° C., resuspended in TrypLE and incubated for 5 min at 37° C. Cells were then collected by centrifugation at 650 rpm for 5 min at 4° C. and resuspended in IEMM containing 10 μM ROCK inhibitor (RI). The cell suspension was passed through a 40 μm cell strainer and resuspended at 1×10^6 cells/mL in IEMM containing 10 μM RI. Cells were seeded at 5000 cells/well into multi-well plates and incubated for overnight at 37° C., 95% humidity and 5% CO2 prior to assay.
5. Membrane Potential Dye, Enteroid Assay B
Enteroid cells were incubated with test compound in IEMM for 18-24 hours at 37° C., 95% humidity and 5% CO2. […] Briefly, cells were washed 5 times in Bath 1 Buffer. Bath 1 Dye Solution was added and the cells were incubated for 25 min at room temperature. Following dye incubation, cells were washed 3 times in Chloride Free Dye Solution. Chloride transport was initiated by addition of Chloride Free Dye Stimulation Solution and the fluorescence signal was read for 15 min. […] Chloride transport was then expressed as a percentage of the chloride transport following treatment with 1 μM (14S)-8-[3-(2-{Dispiro[2.0.2.1]heptan-7-yl}ethoxy)-1H-pyrazol-1-yl]-12,12-dimethyl-2λ^6-thia-3,9,11,18,23-pentaazatetracyclo[17.3.1.111,14.05,10]tetracosa-1(22),5,7,9,19(23),20-hexaene-2,2,4-trione, 3 μM (R)-1-(2,2-difluorobenzo[d][1,3]dioxol-5-yl)-N-(1-(2,3-dihydroxypropyl)-6-fluoro-2-(1-hydroxy-2-methylpropan-2-yl)-1H-indol-5-yl)cyclopropanecarboxamide and 300 nM acute N-[2,4-bis(1,1-dimethylethyl)-5-hydroxyphenyl]-1,4-dihydro-4-oxoquinoline-3-carboxamide triple combination control (% Activity).

[1] = Table 8, human enteroid cells, 18-24 hours, acute 10 μM forskolin and 300 nM ivacaftor
[2] = Table 7, human enteroid cells, 18-24 hours, acute 10 μM forskolin and 300 nM ivacaftor

Sequence of CFTR (P13569 with tags, fused parts or gaps DEL508-508): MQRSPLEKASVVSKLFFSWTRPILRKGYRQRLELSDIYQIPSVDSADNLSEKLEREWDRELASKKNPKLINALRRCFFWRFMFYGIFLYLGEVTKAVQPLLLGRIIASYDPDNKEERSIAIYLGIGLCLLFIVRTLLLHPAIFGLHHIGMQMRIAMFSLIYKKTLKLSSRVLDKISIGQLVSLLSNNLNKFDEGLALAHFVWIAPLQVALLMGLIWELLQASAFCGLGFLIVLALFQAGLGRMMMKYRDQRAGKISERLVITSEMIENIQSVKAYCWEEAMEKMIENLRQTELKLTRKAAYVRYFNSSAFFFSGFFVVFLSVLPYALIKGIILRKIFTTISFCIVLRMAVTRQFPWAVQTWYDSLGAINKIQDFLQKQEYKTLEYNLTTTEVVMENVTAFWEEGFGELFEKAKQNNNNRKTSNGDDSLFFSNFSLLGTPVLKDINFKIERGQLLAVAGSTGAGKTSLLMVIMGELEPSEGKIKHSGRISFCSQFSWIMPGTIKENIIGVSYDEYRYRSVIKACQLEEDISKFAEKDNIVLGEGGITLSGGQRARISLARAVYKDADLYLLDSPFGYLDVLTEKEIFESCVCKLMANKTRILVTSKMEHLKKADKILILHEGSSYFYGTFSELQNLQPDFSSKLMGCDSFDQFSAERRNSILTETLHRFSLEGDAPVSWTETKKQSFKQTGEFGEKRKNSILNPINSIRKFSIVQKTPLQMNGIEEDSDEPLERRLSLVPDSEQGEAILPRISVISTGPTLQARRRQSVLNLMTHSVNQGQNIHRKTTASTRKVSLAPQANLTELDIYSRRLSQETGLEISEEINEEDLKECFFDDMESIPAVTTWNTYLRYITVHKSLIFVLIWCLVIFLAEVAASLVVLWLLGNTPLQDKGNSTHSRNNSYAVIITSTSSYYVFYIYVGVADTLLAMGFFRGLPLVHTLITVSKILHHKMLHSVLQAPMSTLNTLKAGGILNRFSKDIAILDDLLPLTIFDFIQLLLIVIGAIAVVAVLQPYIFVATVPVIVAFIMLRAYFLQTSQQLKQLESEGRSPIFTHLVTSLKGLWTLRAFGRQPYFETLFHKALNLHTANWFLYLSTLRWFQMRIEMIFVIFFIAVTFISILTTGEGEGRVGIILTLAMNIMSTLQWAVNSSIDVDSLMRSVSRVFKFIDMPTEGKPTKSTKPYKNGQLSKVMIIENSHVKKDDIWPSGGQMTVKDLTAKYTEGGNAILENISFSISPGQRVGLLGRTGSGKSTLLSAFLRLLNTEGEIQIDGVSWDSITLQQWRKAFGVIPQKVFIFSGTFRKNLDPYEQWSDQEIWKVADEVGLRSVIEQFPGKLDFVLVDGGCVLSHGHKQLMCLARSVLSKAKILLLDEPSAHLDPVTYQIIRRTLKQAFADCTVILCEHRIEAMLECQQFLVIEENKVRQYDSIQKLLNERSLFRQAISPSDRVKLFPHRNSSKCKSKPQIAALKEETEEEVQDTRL

Ent. B Max Activity (Table 8) | pEC50 [1] | Ent. B Max Activity (%) (Table 9) | pEC50 (Table 9) | Compound | further results
+++ (+++ is >60%) | > 6.00 | – | – | Cc1cccc(C)c1-c1cc2nc(n1)NS(=O)(=O)c1cccc(c1)C(=O)N(Cc1ccnc(NC(=O)OC(C)C)c1)[C@H](CC(C)(C)C)CO2 [Compound 1088] | –
+++ (+++ is >60%) | > 6.00 | – | – | Cc1cccc(C)c1-c1cc2nc(n1)NS(=O)(=O)c1cccc(c1)C(=O)N(Cc1ccc(C(=O)N(C)C)cn1)[C@H](CC(C)(C)C)CO2 [Compound 1110] | –
+ (+ is <30%) | – | – | – | Cc1cccc(C)c1-c1cc2nc(n1)NS(=O)(=O)c1cccc(c1)C(=O)N(Cc1cnc(O)nc1)[C@H](CC(C)(C)C)CO2 [Compound 1096] | –
– | – | +++ (+++ is >600%) | > 6.00 | Cc1cccc(C)c1-c1cc2nc(n1)NS(=O)(=O)c1cccc(c1)C(=O)N(Cc1ncc(C(C)C)cn1)[C@H](CC(C)(C)C)CO2 [Compound 1077] | –
+++ (+++ is >60%) | > 6.00 | – | – | Cc1cccc(C)c1-c1cc2nc(n1)NS(=O)(=O)c1cccc(c1)C(=O)N(Cc1ccc(C(C)(C)O)cn1)[C@H](CC(C)(C)C)CO2 [Compound 1082] | –
+++ (+++ is >60%) | > 6.00 | – | – | Cc1cccc(C)c1-c1cc2nc(n1)NS(=O)(=O)c1cccc(c1)C(=O)N(Cc1ccccc1)[C@H](CC(C)(C)C)CO2 [Compound 1087] | –
++ (++ is 30-60%) | > 6.00 | – | – | Cc1ncc(CN2C(=O)c3cc(nn3C)S(=O)(=O)Nc3nc(cc(-c4c(C)cccc4C)n3)OC[C@H]2CC(C)(C)C)cn1 [Compound 925] | –
+++ (+++ is >60%) | > 6.00 | – | – | Cc1cccc(C)c1-c1cc2nc(n1)NS(=O)(=O)c1cccc(n1)C(=O)N(Cc1cccnc1)[C@H](CC(C)(C)C)CO2 [Compound 1083] | –
– | – | +++ (+++ is >600%) | > 6.00 | CNC(=O)Cc1ccc(CN2C(=O)c3cccc(c3)S(=O)(=O)Nc3nc(cc(-c4c(C)cccc4C)n3)OC[C@H]2CC(C)(C)C)cc1 [Compound 846] | –
+++ (+++ is >60%) | > 6.00 | – | – | Cc1cccc(C)c1-c1cc2nc(n1)NS(=O)(=O)c1cccc(n1)C(=O)N(Cc1cccnn1)[C@H](CC(C)(C)C)CO2 [Compound 1090] | –
+++ (+++ is >60%) | > 6.00 | – | – | Cc1cccc(C)c1-c1cc2nc(n1)NS(=O)(=O)c1cccc(n1)C(=O)N(Cc1ccncn1)[C@H](CC(C)(C)C)CO2 [Compound 1091] | –
+ (+ is <30%) | – | – | – | Cc1cccc(C)c1-c1cc2nc(n1)NS(=O)(=O)c1cc(nn1C)C(=O)N(Cc1cccnc1)[C@H](CC(C)(C)C)CO2 [Compound 933] | –
– | – | +++ (+++ is >600%) | > 6.00 | Cc1cccc(C)c1-c1cc2nc(n1)NS(=O)(=O)c1cccc(c1)C(=O)N(Cc1ncc(F)cn1)[C@H](CC(C)(C)C)CO2 [Compound 804] | –

The next lines start with the compound.

Compound | Ent. B Max Activity (Table 8) | pEC50 [1] | Ent. B Max Activity (%) (Table 9) | pEC50 (Table 9) | further results
COC(=O)N1CCn2ncc(CN3C(=O)c4cccc(c4)S(=O)(=O)Nc4nc(cc(-c5c(C)cccc5C)n4)OC[C@H]3CC(C)(C)C)c2C1 [Compound 403] | +++ (+++ is >60%) | > 6.00 | – | – | –
CNC(=O)CCCN1C(=O)c2cccc(c2)S(=O)(=O)Nc2nc(cc(-c3c(C)cccc3C)n2)OC[C@H]1CC(C)C [Compound 406] | +++ (+++ is >60%) | 5.52 to 6.00 | – | – | –
COC(=O)Nc1ccc(CN2C(=O)c3cccc(c3)S(=O)(=O)Nc3nc(cc(-c4c(C)cccc4C)n3)OC[C@H]2CC(C)(C)C)cn1 [Compound 402] | +++ (+++ is >60%) | > 6.00 | – | – | –
Cc1cccc(C)c1-c1cc2nc(n1)NS(=O)(=O)c1cccc(c1)C(=O)N(CCCOC(F)(F)F)[C@H](CC(C)C)CO2 [Compound 42, (11R)-6-(2,6-Dimethylphenyl)-11-isobutyl-2,2-dioxo-12-[3-(trifluoromethoxy)propyl]-9-oxa-2λ^6-thia-3,5,12,19-tetrazatricyclo[12.3.1.14,8]nonadeca-1(18),4(19),5,7,14,16-hexaen-13-one] | +++ (+++ is >60%) | > 6.00 | – | – | –
Cc1cccc(C)c1-c1cc2nc(n1)NS(=O)(=O)c1cccc(c1)C(=O)N(Cc1ccc(Oc3ncccn3)cc1)[C@H](CC(C)(C)C)CO2 [Compound 789] | – | – | +++ (+++ is >600%) | > 6.00 | –
Cc1cccc(C)c1-c1cc2nc(n1)NS(=O)(=O)c1cccc(c1)C(=O)N(Cc1ccc(S(F)(F)(F)(F)F)cc1)[C@H](CC(C)(C)C)CO2 [Compound 801] | – | – | +++ (+++ is >600%) | > 6.00 | –
CC(=O)NCCCN1C(=O)c2cccc(c2)S(=O)(=O)Nc2nc(cc(-c3c(C)cccc3C)n2)OC[C@H]1CC(C)C [Compound 404] | +++ (+++ is >60%) | > 6.00 | – | – | –
Cc1cccc(C)c1-c1cc2nc(n1)NS(=O)(=O)c1cccc(c1)C(=O)N(Cc1cnc(C(C)(C)C)nc1)[C@H](CC(C)(C)C)CO2 [Compound 788] | – | – | +++ (+++ is >600%) | > 6.00 | –
Cc1cccc(C)c1-c1cc2nc(n1)NS(=O)(=O)c1cccc(c1)C(=O)N(Cc1ccc(C(C)(C)O)cc1)[C@H](CC(C)(C)O)CO2 [Compound 663] | +++ (+++ is >60%) | > 6.00 | – | – | –
Cc1cccc(C)c1-c1cc2nc(n1)NSc1cccc(c1)C(=O)N(Cc1ccc(C(C)(C)O)nc1)[C@H](CC(C)(C)C(F)(F)F)CO2 [Compound 320] | – | – | +++ (+++ is >600%) | > 6.00 | –
Cc1cccc(C)c1-c1cc2nc(n1)NS(=O)(=O)c1cccc(c1)C(=O)N(Cc1ncccc1N1CCOCC1)[C@H](CC(C)(C)C)CO2 [Compound 386] | – | – | +++ (+++ is >600%) | > 6.00 | –
Cc1cccc(C)c1-c1cc2nc(n1)NS(=O)(=O)c1cccc(c1)C(=O)N(CCCC(=O)N(C)C)[C@H](CC(C)C)CO2 [Compound 92, 4-[(11R)-6-(2,6-Dimethylphenyl)-11-isobutyl-2,2,13-trioxo-9-oxa-2λ^6-thia-3,5,12,19-tetrazatricyclo[12.3.1.14,8]nonadeca-1(18),4(19),5,7,14,16-hexaen-12-yl]-N,N-dimethyl-butanamide] | +++ (+++ is >60%) | > 6.00 | – | – | –
Cc1cccc(C)c1-c1cc2nc(n1)NS(=O)(=O)c1cccc(c1)C(=O)N(CCCN(C)C)[C@H](CC(C)C)CO2 [Compound 411] | – | – | – | – | Ent. B Max Activity (Table 7): +++ (+++ is >60%); pEC50 [2]: > 6.00
Cc1cccc(C)c1-c1cc2nc(n1)NS(=O)(=O)c1cccc(c1)C(=O)N(CC#N)[C@H](CC(C)C)CO2 [Compound 1104] | – | – | – | – | Ent. B Max Activity (Table 7): +++ (+++ is >60%); pEC50 [2]: > 6.00
Cc1cccc(C)c1-c1cc2nc(n1)NS(=O)(=O)c1cccc(c1)C(=O)N(Cc1ccc(C(N)=O)cn1)[C@H](CC(C)(C)C)CO2 [Compound 398] | +++ (+++ is >60%) | > 6.00 | – | – | –
Cc1cccc(C)c1-c1cc2nc(n1)NS(=O)(=O)c1cccc(c1)C(=O)N(CC1CC(C)(O)C1)[C@H](CC(C)(C)C)CO2 (stereo partly shown) [Compound 665] | +++ (+++ is >60%) | > 6.00 | – | – | –
Cc1cccc(C)c1-c1cc2nc(n1)NS(=O)(=O)c1cccc(c1)C(=O)N(Cc1ncccc1C(C)(C)O)[C@H](CC(C)(C)C)CO2 [Compound 385] | – | – | +++ (+++ is >600%) | > 6.00 | –

Source: patent US20240150377A1, “MODULATORS OF CYSTIC FIBROSIS TRANSMEMBRANE CONDUCTANCE REGULATOR” (VERTEX PHARMACEUTICALS INCORPORATED, priority 2020, published 2024)
